According to patent publication US20240398757A1 (COCRYSTAL PHARMA, INC., priority 2022, published 2024):

The compounds below were run against T1, SARS2 protease (Severe acute respiratory syndrome coronavirus 2, UniProt P0DTD1) (assay: SARS-CoV-2 protease inhibition assay (SARS2 FRET protease assay)). Details: IC50 (μM), SARS2 protease 30 nM, peptide substrate 1.3 μM, 120 minutes at 37° C., compounds 20 μM to 0.075 nM.
T1 construct: SARS2 protease was added to a final concentration of 30 nM
Assay type: biochemical
For `CCC[C@H](NC(=O)OC(c1ccccc1)C(F)(F)c1cccc(Cl)c1)C(=O)N[C@H](C=O)C[C@@H]1CCNC1=O` (stereo partly drawn) [Compound A98], the IC50 was 1.9 nM.
`CCCC[C@H](NC(=O)OC(c1cccc(F)c1)C(F)(F)c1cccc(Cl)c1)C(=O)N[C@H](C=O)C[C@@H]1CCNC1=O` (stereo partly drawn) [Compound A99] was tested, and the IC50 was 0.6 nM.
With `CCC[C@H](NC(=O)OC(c1ccccc1)C(F)(F)c1cccc(F)c1)C(=O)N[C@@H](C[C@@H]1CCNC1=O)C(=O)C(=O)NC1CC1` (stereo partly drawn) [Compound A100] the IC50 was 250 nM.
For `CCC(=O)OC([C@H](C[C@@H]1CCNC1=O)NC(=O)[C@H](CC1CCCCC1)NC(=O)OC(c1ccccc1)C(F)(F)c1cccc(Cl)c1)S(=O)(=O)O` (stereo partly drawn) [Compound A101], the IC50 was 178 nM.
With `O=C[C@H](C[C@@H]1CCNC1=O)NC(=O)[C@H](CC1CCC1)NC(=O)OC(c1ccccc1)C(F)(F)c1cccc(Cl)c1` (stereo partly drawn) [Compound A102] the IC50 was 0.1 nM.
`O=C(N[C@@H](CC1CCCC1)C(=O)N[C@@H](C[C@@H]1CCNC1=O)C(=O)C(=O)NC1CC1)OC(c1ccccc1)C(F)(F)c1cccc(Cl)c1` (stereo partly drawn) [Compound A103] gave an IC50 of 156 nM.
`CCCC[C@H](NC(=O)OC(c1cccc(F)c1)C1(c2cccc(F)c2)CC1)C(=O)N[C@@H](C[C@@H]1CCNC1=O)C(=O)C(=O)NC1CC1` (stereo partly drawn) [Compound A104] showed an IC50 of 309 nM.
For `CCCC[C@H](NC(=O)OC(c1cccc(F)c1)C1(c2cccc(Cl)c2)CC1)C(=O)N[C@@H](C[C@@H]1CCNC1=O)C(=O)C(=O)NC1CC1` (stereo partly drawn) [Compound A105], the IC50 was 510 nM.
For `CCCC[C@H](NC(=O)OC(c1cccc(F)c1)C(F)(F)c1cccc(Cl)c1)C(=O)N[C@@H](C[C@@H]1CCNC1=O)C(=O)C(=O)NC1CC1` (stereo partly drawn) [Compound A106], the IC50 was 170 nM.
For `CCCC[C@H](NC(=O)O[C@@H](c1ccccc1)C(F)(F)c1cccc(Cl)c1)C(=O)N[C@H](C=O)C[C@@H]1CCNC1=O` [Compound A107, (S)-2-(3-chlorophenyl)-2,2-difluoro-1-phenylethyl ((S)-1-oxo-1-(((S)-1-oxo-3-((S)-2-oxopyrrolidin-3-yl)propan-2-yl)amino)hexan-2-yl)carbamate], the IC50 was 1 nM.
Compound `CCC[C@H](NC(=O)OC(c1ccccc1)C(F)(F)c1cccc(Cl)c1)C(=O)N[C@@H](C[C@@H]1CCNC1=O)C(=O)C(=O)NC1CC1` (stereo partly drawn) [Compound A109] has an IC50 of 170 nM.
`CCCC[C@H](NC(=O)O[C@H](c1ccccc1)C(F)(F)c1cccc(Cl)c1)C(=O)N[C@H](C=O)C[C@@H]1CCNC1=O` [Compound A110, (R)-2-(3-chlorophenyl)-2,2-difluoro-1-phenylethyl ((S)-1-oxo-1-(((S)-1-oxo-3-((S)-2-oxopyrrolidin-3-yl)propan-2-yl)amino)hexan-2-yl)carbamate] was tested, and the IC50 was 0.2 nM.
`CCCC[C@H](NC(=O)O[C@H](c1ccccc1)C(F)(F)c1cccc(Cl)c1)C(=O)N[C@@H](C[C@@H]1CCNC1=O)C(O)S(=O)(=O)O` (stereo partly drawn) [Compound A111] gave an IC50 of 2.8 nM.
In the case of `CCCC[C@H](NC(=O)OC(c1ccccc1)C(F)(F)c1cccc(Cl)c1)C(=O)N[C@H](C=O)CC1CC(C)NC1=O` (stereo partly drawn) [Compound A112], the IC50 is reported as 179 nM.
In the case of `CCCC(=O)OC([C@H](C[C@@H]1CCNC1=O)NC(=O)[C@H](CC1CCCCC1)NC(=O)OC(c1ccccc1)C(F)(F)c1cccc(Cl)c1)S(=O)(=O)O` (stereo partly drawn) [Compound A113], the IC50 is reported as 241 nM.
With `CCCC[C@H](NC(=O)OC(c1ccccc1)C(F)(F)c1cccc(Cl)c1)C(=O)N[C@H](C=O)C[C@@H]1CCCNC1=O` (stereo partly drawn) [Compound A114] the IC50 was 0.3 nM.
In the case of `CCCC[C@H](NC(=O)O[C@@H](c1ccccc1)C(F)(F)c1cccc(Cl)c1)C(=O)N[C@@H](C[C@@H]1CCNC1=O)C(=O)C(=O)NC1CC1` [Compound A115], the IC50 is reported as 805 nM.
In the case of `O=C(N[C@@H](CC1CCCCC1)C(=O)N[C@@H](C[C@@H]1CCNC1=O)C(=O)C(=O)NC1CC1)O[C@@H](c1ccccc1)C(F)(F)c1cccc(Cl)c1` [Compound A116], the IC50 is reported as 28.9 nM.
Compound `CCNC(=O)C(=O)[C@H](C[C@@H]1CCNC1=O)NC(=O)[C@H](CC1CCCC1)NC(=O)OC(c1ccccc1)C(F)(F)c1cccc(Cl)c1` (stereo partly drawn) [Compound A117, 2-(3-chlorophenyl)-2,2-difluoro-1-phenylethyl ((S)-3-cyclopentyl-1-(((S)-4-(ethylamino)-3,4-dioxo-1-((S)-2-oxopyrrolidin-3-yl)butan-2-yl)amino)-1-oxopropan-2-yl)carbamate] has an IC50 of 2.8 nM.
Compound `CCNC(=O)C(=O)[C@H](C[C@@H]1CCNC1=O)NC(=O)[C@H](CC1CCCCC1)NC(=O)O[C@@H](c1ccccc1)C(F)(F)c1cccc(Cl)c1` [Compound A120] has an IC50 of less than 0.01 nM.
Work on `CCCC[C@H](NC(=O)O[C@@H](c1ccccc1)C(F)(F)c1cccc(Cl)c1)C(=O)N[C@@H](C[C@@H]1CCNC1=O)C(O)S(=O)(=O)O` (stereo partly drawn) [Compound A121] yielded an IC50 of 18 nM.
`CCCC[C@H](NC(=O)O[C@@H](c1ccccc1)C(C)(C)c1cccc(Cl)c1)C(=O)N[C@H](C=O)C[C@H]1CCNC1=O` [Compound A122, (S)-2-(3-Chlorophenyl)-2-methyl-1-phenylpropyl ((S)-1-oxo-1-(((S)-1-oxo-3-((R)-2-oxopyrrolidin-3-yl)propan-2-yl)amino)hexan-2-yl)carbamate] was tested, and the IC50 was less than 0.1 nM.
With `CCCC[C@H](NC(=O)O[C@H](c1ccccc1)C(C)(C)c1cccc(Cl)c1)C(=O)N[C@H](C=O)C[C@H]1CCNC1=O` [Compound A123] the IC50 was 5300 nM.
`O=C[C@H](C[C@@H]1CCCNC1=O)NC(=O)[C@H](CC1CCCCC1)NC(=O)OC(c1ccccc1)C(F)(F)c1cccc(Cl)c1` (stereo partly drawn) [Compound A124] was tested, and the IC50 was 0.1 nM.
Compound `O=C[C@H](C[C@@H]1CCNC1=O)NC(=O)[C@H](CC1CCCCC1)NC(=O)O[C@@H](c1ccccc1)C(F)(F)c1cccc(Cl)c1` [Compound A125] has an IC50 of 4.2 nM.
`O=C[C@H](C[C@@H]1CCNC1=O)NC(=O)[C@H](CC1CCCCC1)NC(=O)O[C@@H](c1ccccc1)C(F)(F)c1cccc(F)c1` [Compound A126] showed an IC50 of less than 0.01 nM.
In the case of `CCCC[C@H](NC(=O)OC(c1ccccc1)C(F)(F)c1cccc(Cl)c1)C(=O)N[C@@H](C[C@@H]1CCCNC1=O)C(=O)C(=O)NC1CC1` (stereo partly drawn) [Compound A127], the IC50 is reported as 10 nM.
For `CCOC(=O)/C=C/[C@H](C[C@@H]1CCNC1=O)NC(=O)[C@H](CC(C)C)NC(=O)OC(c1ccccc1)C(F)(F)c1cccc(Cl)c1` (stereo partly drawn) [Compound A128], the IC50 was 3950 nM.
`O=C(N[C@@H](CC1CCCCC1)C(=O)N[C@@H](C[C@@H]1CCCNC1=O)C(=O)C(=O)NC1CC1)OC(c1ccccc1)C(F)(F)c1cccc(Cl)c1` (stereo partly drawn) [Compound A129] showed an IC50 of 130 nM.
`CCNC(=O)C(=O)[C@H](C[C@@H]1CCNC1=O)NC(=O)[C@H](CC1CCCCC1)NC(=O)OC(c1ccccc1)C(C)(C)c1cccc(F)c1` (stereo partly drawn) [Compound A130] gave an IC50 of 88 nM.
`CCNC(=O)C(=O)[C@H](C[C@@H]1CCNC1=O)NC(=O)[C@H](CC1CC1)NC(=O)OC(c1ccccc1)C(F)(F)c1cccc(Cl)c1` (stereo partly drawn) [Compound A131] was tested, and the IC50 was 0.2 nM.
For `CCNC(=O)C(=O)[C@H](C[C@@H]1CCNC1=O)NC(=O)[C@H](CC1CCC1)NC(=O)OC(c1ccccc1)C(F)(F)c1cccc(Cl)c1` (stereo partly drawn) [Compound A132], the IC50 was 66 nM.
`O=C(N[C@@H](CC1CCCCC1)C(=O)N[C@@H](C[C@@H]1CCNC1=O)C(O)S(=O)(=O)O)O[C@@H](c1ccccc1)C(F)(F)c1cccc(F)c1` (stereo partly drawn) [Compound A133] showed an IC50 of 2 nM.
With `CCNC(=O)C(=O)[C@H](C[C@@H]1CCNC1=O)NC(=O)[C@H](CC1CCCCC1)NC(=O)O[C@H](c1ccccc1)C(F)(F)c1cccc(Cl)c1` [Compound A134] the IC50 was 1180 nM.
`O=C(N[C@@H](CC1CCCCC1)C(=O)N[C@@H](C[C@@H]1CCNC1=O)C(O)S(=O)(=O)O)O[C@H](c1ccccc1)C(F)(F)c1cccc(Cl)c1` (stereo partly drawn) [Compound A135] showed an IC50 of 2.2 nM.
Work on `CCCC[C@H](NC(=O)OC(c1ccccc1)C1(c2cccc(Cl)c2)CC1)C(=O)N[C@@H](C[C@@H]1CCNC1=O)C(=O)C(=O)NC1CC1` (stereo partly drawn) [Compound A136] yielded an IC50 of 83 nM.
Compound `CCCC[C@H](NC(=O)O[C@H](c1ccccc1)C(F)(F)c1cccc(Cl)c1)C(=O)N[C@@H](C[C@@H]1CCNC1=O)C(=O)C(=O)NC1CC1` [Compound A137] has an IC50 of 0.5 nM.
With `CCCC[C@H](NC(=O)OC(c1ccccc1)C(F)(F)c1cccc(Cl)c1)C(=O)N[C@@H](C[C@@H]1CCNC1=O)C(=O)C(=O)NCC` (stereo partly drawn) [Compound A138] the IC50 was 28 nM.
`CC(C)C[C@H](NC(=O)O[C@@H](c1cccc(Cl)c1)C(C)(C)c1cccc(Cl)c1)C(=O)N[C@H](C=O)C[C@@H]1CCNC1=O` [Compound A139] was tested, and the IC50 was 3 nM.
`CC(C)C[C@H](NC(=O)O[C@H](c1cccc(Cl)c1)C(C)(C)c1cccc(Cl)c1)C(=O)N[C@H](C=O)C[C@@H]1CCNC1=O` [Compound A140] gave an IC50 of 45 nM.
`O=C(N[C@@H](CC1CCCCC1)C(=O)N[C@@H](C[C@@H]1CCNC1=O)C(O)S(=O)(=O)O)O[C@@H](c1ccccc1)C(F)(F)c1cccc(Cl)c1` (stereo partly drawn) [Compound A141, sodium (2S)-2-((S)-2-((((S)-2-(3-chlorophenyl)-2,2-difluoro-1-phenylethoxy)carbonyl)amino)-3-cyclohexylpropanamido)-1-hydroxy-3-((S)-2-oxopyrrolidin-3-yl)propane-1-sulfonate] gave an IC50 of 55 nM.
`CC(C)C[C@H](NC(=O)O[C@@H](c1cccc(Cl)c1)C(C)(C)c1cccc(Cl)c1)C(=O)N[C@@H](C[C@@H]1CCNC1=O)C(=O)C(=O)NC1CC1` [Compound A142] gave an IC50 of 32 nM.
`CCCC[C@H](NC(=O)O[C@@H](c1ccccc1)C(F)(F)c1cccc(F)c1)C(=O)N[C@H](C=O)C[C@@H]1CCNC1=O` [Compound A143] was tested, and the IC50 was 4 nM.
In the case of `CCCC[C@H](NC(=O)O[C@H](c1ccccc1)C(F)(F)c1cccc(F)c1)C(=O)N[C@H](C=O)C[C@@H]1CCNC1=O` [Compound A144], the IC50 is reported as 23 nM.
With `CCC[C@H](NC(=O)OC(c1ccccc1)C(F)(F)c1cccc(Cl)c1)C(=O)N[C@@H](C[C@@H]1CCNC1=O)C(=O)C(=O)NCC` (stereo partly drawn) [Compound A145] the IC50 was 150 nM.
Work on `CCCC[C@H](NC(=O)O[C@H](c1ccccc1)C(F)(F)c1cccc(Cl)c1)C(=O)N[C@H](C=O)C[C@@H]1CCCNC1=O` [Compound A146] yielded an IC50 of 38 nM.
For `CC(C)C[C@H](NC(=O)O[C@H](c1cccc(Cl)c1)C(C)(C)c1cccc(Cl)c1)C(=O)N[C@@H](C[C@@H]1CCNC1=O)C(=O)C(=O)NC1CC1` [Compound A147], the IC50 was 558 nM.
In the case of `CCC[C@H](NC(=O)O[C@@H](c1ccc(F)cc1)C(F)(F)c1cccc(Cl)c1)C(=O)N[C@H](C=O)C[C@@H]1CCNC1=O` [Compound A148], the IC50 is reported as 7 nM.
